{"source": "patent US20030162756A1", "about": "“Use of 2-hydroxy or 2-acetyloxy-4-trifluoromethylbenzoic acid derivatives as an agent for the treatment and prevention of mild cognitive impairment” (J. Uriach & CIA. S.A., priority 2001, published 2003)", "origin": "cited, not measured here", "test_system": "platelet aggregation", "conditions": "described in U.S. Pat. No. 4,096,252; cited from earlier work", "data": [{"smiles": "O=C(O)c1ccc(C(F)(F)F)cc1O", "note": "[HTB, 2-hydroxy-4-trifluoromethylbenzoic acid]", "values": [{"measurement": "activity as platelet anti-aggregant", "result": "remarkable activity as platelet anti-aggregant"}]}]}
